Source: PMC12196494, “Application of Solvent Evaporation to Generate Supersaturated Lipid-Based Formulations: Investigation of Drug Load and Formulation Quality” (Pharmaceutics, 2025)
Values after ≈ are worked out from the molar mass of the structure shown. Like-named read-outs stand apart in the source and are kept apart here.

What was measured:
[1] = cited from earlier work; for Drug load, % of the equilibrium solubility at 37 °C: supersaturated type I and type II LBFs
[2] = test system: hamsters; set-up: method as in PMID 33387565; conditions: doses of 1000–4000 ppm DCM; cited from earlier work
[3] = test system: mice; set-up: method as in PMID 33387565; conditions: doses of 1000–4000 ppm DCM; cited from earlier work
[4] = test system: rats; set-up: method as in PMID 33387565; conditions: doses of 1000–4000 ppm DCM; cited from earlier work
[5] = MCT and LCM formulations, polarized light, Figure 1A-D
Description: For selected samples where precipitation was visible, a few droplets (enough volume to cover the area of a quartz microscope slide covered by a cover slip) were taken from the middle of the vial using a plastic pipette, and the crystallinity was confirmed by using a ZEISS Axio Vert.A1 microscope with polarized light function (Jena, Germany).

[6] = cited from earlier work
[7] = Solubility studies in lipid-based formulations (MCT, LCM) at different temperatures; type: physicochemical; conditions: for solubility: oil or lipid, thermodynamic from solid, n = 3, mean ± SD
Description: In the case that the added compound was dissolved during incubation, more compound was added. After incubation, the samples were centrifuged in an Eppendorf centrifuge 5430R (Hamburg, Germany) for 30 min at 17,500 rpm (=30,130 rcf) at either 20 °C (samples incubated at ambient temperature), 37 °C (samples incubated at 37 °C), or 40 °C (samples incubated at 60 °C). The supernatant was diluted and further analyzed by UPLC-UV, as described below.
The supernatants obtained from the solubility studies were diluted 1:50 with tetrahydrofuran, which was further diluted 1:100 with acetonitrile. […] This final dilution was analyzed by using an Acquity (UPLC™) H-class system composed of a quaternity solvent manager, a photodiode array (PDA) detector, a sample manager, and the Empower® software (version 3.0) for data processing. For the chromatographic analysis, a reversed-phase Waters Acquity BEH C18 with a 50 mm × 2.1 mm column (particle size 1.7 μm) including a precolumn (Waters Acquity BEH C18, 5 mm * 2.1 mm, particle size 1.7 μm) (Waters, Milford, CT, USA) was used.
The statistical analysis was performed using GraphPad Prism, Version 9.5.1.

[8] = for Stability: celecoxib in LCM

SMILES: C(=C\c1ccccc1)/CN1CCN(C(c2ccccc2)c2ccccc2)CC1 [cinnarizine]
- Drug load, % of the equilibrium solubility at 37 °C [1]: up to 138%

SMILES: ClCCl [DCM, dichloromethane]
- Risk for malignant tumors [2]: not in rats and hamsters
- Risk for malignant tumors [3]: increased risk for malignant tumors
- Risk for malignant tumors [4]: not in rats and hamsters

SMILES: CC(C)OC(=O)C(C)(C)Oc1ccc(C(=O)c2ccc(Cl)cc2)cc1 [Fenofibrate, fenofibrate]
- Time of storage to crystallization ([1]; heat-induced supersaturated LBF of MCT and phospholipids, prepared at 65 °C, stored at 20–23 °C): nine weeks

SMILES: Cc1ccc(-c2cc(C(F)(F)F)nn2-c2ccc(S(N)(=O)=O)cc2)cc1 [Celecoxib, celecoxib]
- Solid state of the precipitate from the formulations [5]: crystalline
- log P [6]: 4.3
- Ratio of solubility 60 °C/Ambient temperature ([7]; LCM): 2.38 ± 0.04
- Ratio of solubility 60 °C/Ambient temperature ([7]; MCT): 1.85 ± 0.03
- solubility ([7]; long-chain monoglyceride (Maisine CC), Maisine CC, 37 °C, read-out: Solubility LCM): 15.57 ± 0.09 mg/mL (≈ 40.8 mM)
- solubility ([7]; long-chain monoglyceride (Maisine CC), Maisine CC, 60 °C, read-out: Solubility LCM): 24.6 ± 0.36 mg/mL (≈ 64.4 mM)
- solubility ([7]; long-chain monoglyceride (Maisine CC), Maisine CC, ambient temperature (~21 °C), read-out: Solubility LCM): 10.34 ± 0.08 mg/mL (≈ 27.1 mM)
- solubility ([7]; medium-chain triglyceride (Labrafac Lipophile WL1349), medium-chain triglyceride, 37 °C, read-out: Solubility MCT): 11.3 ± 0.05 mg/mL (≈ 29.6 mM)
- solubility ([7]; medium-chain triglyceride (Labrafac Lipophile WL1349), medium-chain triglyceride, 60 °C, read-out: Solubility MCT): 14.3 ± 0.25 mg/mL (≈ 37.5 mM)
- solubility ([7]; medium-chain triglyceride (Labrafac Lipophile WL1349), medium-chain triglyceride, ambient temperature (~21 °C), read-out: Solubility MCT): 7.72 ± 0.16 mg/mL (≈ 20.2 mM)
- Supersaturation ratio between 60 °C and ambient temperature ([7]; range over MCT and LCM): 1.85–2.38
- Drug load relative to the solubility at ambient temperature ([7]; supersaturation induced by heat (60 °C)): 238%
- Precipitation ([8]; celecoxib content of 371% or higher, both vehicles, stored at ambient): visible precipitation already within a timeframe of a few days
- Stability ([8]; DCM 1 + 2, stored at ambient): 7 to 14 days
- Stability ([8]; DCM 1 + 4, stored at ambient, n = 1): 7 to 14 days
- Drug load relative to the solubility at ambient temperature ([8]; solvent-based approach, DCM evaporation): up to 475%
- Time to precipitation ([1]; heat-induced supersaturated type I and type II LBFs, in most cases): ≤ 14 days
- Drug load, % of the equilibrium solubility at 37 °C [1]: ≤ 136%

SMILES: CC(C)Cc1ccc(C(C)C(=O)O)cc1 (stereo not drawn) [ibuprofen]
- Time stable ([1]; some ibuprofen-loaded solid LBFs): up to 9 months
